Reference: the supplement of paper PMC8671470

What was measured:
Assay in all cases: cell viability (% survival relative to DMSO control); higher = less cytotoxic
Conditions in all cases: 72 h
[1] = tested on: myeloid leukemia patient primary cells Pat.7
How it was run: (§1)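 Thawed mononuclear cells from AML or CML patients were purified on Ficoll and cultured for 72 h in RPMI 1640 with 10% FBS, at 10,000 cells/well, on 384-well plates carrying 70 pre-printed compounds at 1–10,000 nM in five tenfold steps, in duplicate. Viability came from CellTiter-Glo, normalised against DMSO and against 10 μM proteasome inhibitor. Any area under the curve given was derived from log-logistic curve fits in the drc and PharmacoGx R packages, and these fits had four parameters.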

[2] = tested on: myeloid leukemia patient primary cells Pat.2
How it was run: as §1

[3] = tested on: myeloid leukemia patient primary cells Pat.1
How it was run: as §1

[4] = tested on: myeloid leukemia patient primary cells Pat.8
How it was run: as §1

Row | Structure (SMILES) | cell viability ([1]; 1 nM) [%] | cell viability ([1]; 10 nM) [%] | cell viability ([1]; 100 nM) [%] | cell viability ([1]; 1000 nM) [%] | cell viability ([1]; 10000 nM) [%] | cell viability ([2]; 1 nM) [%] | cell viability ([2]; 10 nM) [%] | cell viability ([2]; 100 nM) [%] | cell viability ([2]; 1000 nM) [%] | cell viability ([2]; 10000 nM) [%] | cell viability ([3]; 1 nM) [%] | cell viability ([3]; 10 nM) [%] | cell viability ([3]; 100 nM) [%] | cell viability ([3]; 1000 nM) [%] | cell viability ([3]; 10000 nM) [%] | cell viability ([4]; 1 nM) [%] | cell viability ([4]; 10 nM) [%] | cell viability ([4]; 100 nM) [%] | cell viability ([4]; 1000 nM) [%] | cell viability ([4]; 10000 nM) [%]
1 | Sc1ncnc2nc[nH]c12 [6-mercaptopurine] | > 100 | 78.2 | 66.1 | 93.3 | 88.8 | 95.6 | > 100 | 94 | 99.9 | > 100 | > 100 | 95.1 | 92.6 | 84.3 | 93.1 | 80.3 | > 100 | 86.2 | 75.1 | 73
2 | Cc1noc2c1-c1ccccc1C(c1ccc(Cl)cc1)=N[C@H]2CC(N)=O [CPI-0610] | > 100 | 97.1 | 84.1 | 60.5 | 58 | 99.4 | 97.6 | 88.9 | 58.5 | 40.3 | 90.3 | 93.9 | 84.9 | 39.1 | 21.7 | 93.5 | 78.8 | 96.1 | 70 | 82.7
3 | Nc1ccn([C@@H]2O[C@H](CO)[C@@H](O)[C@@H]2O)c(=O)n1 [Cytarabine] | > 100 | 50.7 | 59.9 | 12.8 | 4.95 | 99 | 88.1 | 95.9 | 89.1 | 37.3 | 99.3 | 96.1 | 76.9 | 84.9 | 60.7 | 90.3 | 91.5 | 96.1 | 89.1 | 22.4
4 | CCN(CC)CCN(Cc1ccc(-c2ccc(C(F)(F)F)cc2)cc1)C(=O)Cn1c(SCc2ccc(F)cc2)nc(=O)c2c1CCC2 [Darapladib] | 63.7 | 74.4 | 40.1 | 5.93 | < 0 | 84.7 | 95.9 | 83 | 83.1 | < 0 | 79.5 | 83 | 61.6 | 95.4 | < 0 | 62.6 | 85.8 | 77.8 | 86.2 | 1.84
5 | CC12CCC(O)CC1CCC1C2CCC2(C)C(C3=CC(=O)OC3)CCC12O (stereo not given) [Digitoxigenin] | 94.8 | 91.8 | 67.9 | > 100 | > 100 | 94.1 | 95.3 | 88.5 | 42.4 | 6.42 | 95.1 | 74 | 63.2 | 21.5 | 13 | 91.6 | 89 | 78.4 | 7.34 | 2.31
6 | C[C@H]1O[C@@H](O[C@H]2[C@@H](O)C[C@H](O[C@H]3[C@@H](O)C[C@H](O[C@H]4CC[C@@]5(C)[C@H](CC[C@@H]6[C@@H]5C[C@@H](O)[C@]5(C)[C@@H](C7=CC(=O)OC7)CC[C@]65O)C4)O[C@@H]3C)O[C@@H]2C)C[C@H](O)[C@@H]1O [Digoxin] | 76.9 | 86.8 | 69 | 89 | > 100 | 99.2 | 96.8 | 82.8 | 26.6 | 3.27 | 96.2 | 84.5 | 85.3 | 13.2 | 8.18 | 84.6 | 96.1 | 67.2 | 6.59 | 5.15
7 | Clc1ccc(COC(Cn2ccnc2)c2ccc(Cl)cc2Cl)cc1 (stereo not given) [Econazole] | 72.2 | > 100 | 93 | 63.4 | < 0 | 94.9 | 91.2 | 96.5 | 97.6 | 90 | 83.3 | 77.2 | 93.6 | > 100 | 52.8 | 93.3 | 86.9 | 81 | > 100 | 85.3
8 | C[C@]12O[C@H](C[C@]1(O)CO)n1c3ccccc3c3c4c(c5c6ccccc6n2c5c31)CNC4=O [Lestaurtinib] | 88.3 | 62.3 | > 100 | 63.1 | < 0 | 97.1 | 79 | 74.7 | 51.1 | 11.5 | 93.5 | 54.2 | 22.3 | 22.1 | < 0 | 87.6 | 75.8 | 61.9 | 54.6 | 0.632
9 | CC(Cc1ccc(O)c(O)c1)C(C)Cc1ccc(O)c(O)c1 (stereo not given) [Masoprocol] | > 100 | 85.3 | 89 | 31.9 | 2.01 | 98.7 | 89.8 | 90.3 | 87.7 | 68 | > 100 | 92.3 | 90.5 | 85.6 | 51.7 | 97.6 | 84.9 | 95.6 | 69.7 | 6.74
10 | COc1c(C)c2c(c(O)c1C/C=C(\C)CCC(=O)O)C(=O)OC2 [Mycophenolic acid] | 52.5 | 94.8 | 56.3 | > 100 | 99.3 | 97.4 | 99.8 | 82.1 | > 100 | 85.6 | 78.4 | 96.8 | 85 | 93.9 | 87.3 | 69.4 | 92.3 | 75.5 | 91.8 | 43.8
11 | CCOC(=O)N1c2ccc(C(F)(F)F)cc2[C@@H](N(Cc2cc(C(F)(F)F)cc(C(F)(F)F)c2)C(=O)OC)C[C@H]1CC [Torcetrapib] | 84.5 | 58.4 | > 100 | 50.5 | 30 | 97.2 | 84.4 | 99.7 | 99.7 | 80.2 | 93.1 | 72.9 | 92.6 | 95.4 | 65.3 | 92.3 | 84.8 | 96.1 | 93.3 | 65.7
